Reference: ChEMBL document CHEMBL4507265 (2021)

What was measured:
[1] = tested on: Tyrosine-protein kinase ABL1 (Homo sapiens), P00519 [T315I]; details: Compound concentration 1000.0 nM
[2] = tested on: Tyrosine-protein kinase ABL1 (Homo sapiens), P00519 [Y253F]; details: Compound concentration 1000.0 nM
[3] = molecular target: Mitogen-activated protein kinase kinase kinase 6 (Homo sapiens) (UniProt O95382); details: Compound concentration 1000.0 nM
[4] = molecular target: Tyrosine-protein kinase Blk (Homo sapiens) (UniProt P51451); details: Compound concentration 1000.0 nM
Tyrosine-protein kinase Blk (Homo sapiens), sequence (P51451 2-505 limits assumed): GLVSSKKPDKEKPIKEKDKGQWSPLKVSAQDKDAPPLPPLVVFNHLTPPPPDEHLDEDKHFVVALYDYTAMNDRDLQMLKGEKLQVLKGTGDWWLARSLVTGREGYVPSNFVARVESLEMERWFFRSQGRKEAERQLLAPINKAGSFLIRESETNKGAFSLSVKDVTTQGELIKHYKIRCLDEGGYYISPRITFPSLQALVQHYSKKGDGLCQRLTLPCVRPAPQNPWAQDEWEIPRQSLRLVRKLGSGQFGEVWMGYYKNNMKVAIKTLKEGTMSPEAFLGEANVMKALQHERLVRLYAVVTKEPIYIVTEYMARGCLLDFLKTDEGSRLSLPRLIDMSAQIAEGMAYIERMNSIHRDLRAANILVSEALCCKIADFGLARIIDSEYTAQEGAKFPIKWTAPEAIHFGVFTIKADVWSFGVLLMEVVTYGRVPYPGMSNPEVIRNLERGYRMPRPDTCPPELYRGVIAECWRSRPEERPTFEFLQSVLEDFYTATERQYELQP

[5] = molecular target: Cytoplasmic tyrosine-protein kinase BMX (Homo sapiens) (UniProt P51813); details: Compound concentration 1000.0 nM
[6] = molecular target: Serine/threonine-protein kinase B-raf (Homo sapiens) (UniProt P15056); details: Compound concentration 1000.0 nM
Serine/threonine-protein kinase B-raf (Homo sapiens), sequence (P15056 whole entry): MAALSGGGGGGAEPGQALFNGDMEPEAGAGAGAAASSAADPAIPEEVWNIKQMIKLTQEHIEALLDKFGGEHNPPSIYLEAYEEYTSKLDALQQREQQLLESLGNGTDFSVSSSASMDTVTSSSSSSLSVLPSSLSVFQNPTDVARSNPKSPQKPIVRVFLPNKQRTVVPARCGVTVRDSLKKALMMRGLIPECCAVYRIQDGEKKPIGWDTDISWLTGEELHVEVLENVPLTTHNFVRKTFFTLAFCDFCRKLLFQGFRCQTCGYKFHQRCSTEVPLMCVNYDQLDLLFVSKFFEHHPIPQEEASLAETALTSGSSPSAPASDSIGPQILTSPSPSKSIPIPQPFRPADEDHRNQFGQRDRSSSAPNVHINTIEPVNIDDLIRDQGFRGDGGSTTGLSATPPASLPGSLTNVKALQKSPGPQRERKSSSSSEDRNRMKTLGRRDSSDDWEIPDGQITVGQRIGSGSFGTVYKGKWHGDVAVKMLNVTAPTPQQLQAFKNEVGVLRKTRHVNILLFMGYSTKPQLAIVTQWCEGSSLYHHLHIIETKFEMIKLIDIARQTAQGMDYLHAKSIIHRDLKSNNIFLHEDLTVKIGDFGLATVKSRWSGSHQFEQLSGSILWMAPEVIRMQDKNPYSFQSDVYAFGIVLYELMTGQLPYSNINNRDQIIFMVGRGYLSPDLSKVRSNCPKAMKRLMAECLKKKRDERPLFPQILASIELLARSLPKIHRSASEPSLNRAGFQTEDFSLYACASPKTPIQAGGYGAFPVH

[7] = molecular target: Serine/threonine-protein kinase Chk1 (Homo sapiens) (UniProt O14757); details: Compound concentration 1000.0 nM
Serine/threonine-protein kinase Chk1 (Homo sapiens), sequence (O14757 whole entry): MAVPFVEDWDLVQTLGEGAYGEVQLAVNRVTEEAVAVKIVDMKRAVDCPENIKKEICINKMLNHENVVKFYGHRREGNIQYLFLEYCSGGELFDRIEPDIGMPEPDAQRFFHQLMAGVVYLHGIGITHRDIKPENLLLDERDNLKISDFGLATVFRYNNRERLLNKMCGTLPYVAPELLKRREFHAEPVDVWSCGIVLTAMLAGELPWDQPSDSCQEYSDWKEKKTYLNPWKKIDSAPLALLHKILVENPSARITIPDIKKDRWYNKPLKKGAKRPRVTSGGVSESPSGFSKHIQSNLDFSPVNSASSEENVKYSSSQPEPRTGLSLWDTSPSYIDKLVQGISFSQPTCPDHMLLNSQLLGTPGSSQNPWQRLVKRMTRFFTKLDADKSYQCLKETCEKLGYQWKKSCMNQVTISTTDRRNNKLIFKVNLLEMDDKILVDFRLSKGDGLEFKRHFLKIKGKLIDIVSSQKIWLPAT

[8] = molecular target: Dual specificity tyrosine-phosphorylation-regulated kinase 1A (Homo sapiens) (UniProt Q13627); details: Compound concentration 1000.0 nM
[9] = tested on: Epidermal growth factor receptor (Homo sapiens), P00533 [G719C]; details: Compound concentration 1000.0 nM
[10] = molecular target: Ephrin type-A receptor 3 (Homo sapiens) (UniProt P29320); details: Compound concentration 1000.0 nM
Ephrin type-A receptor 3 (Homo sapiens), sequence (P29320 whole entry): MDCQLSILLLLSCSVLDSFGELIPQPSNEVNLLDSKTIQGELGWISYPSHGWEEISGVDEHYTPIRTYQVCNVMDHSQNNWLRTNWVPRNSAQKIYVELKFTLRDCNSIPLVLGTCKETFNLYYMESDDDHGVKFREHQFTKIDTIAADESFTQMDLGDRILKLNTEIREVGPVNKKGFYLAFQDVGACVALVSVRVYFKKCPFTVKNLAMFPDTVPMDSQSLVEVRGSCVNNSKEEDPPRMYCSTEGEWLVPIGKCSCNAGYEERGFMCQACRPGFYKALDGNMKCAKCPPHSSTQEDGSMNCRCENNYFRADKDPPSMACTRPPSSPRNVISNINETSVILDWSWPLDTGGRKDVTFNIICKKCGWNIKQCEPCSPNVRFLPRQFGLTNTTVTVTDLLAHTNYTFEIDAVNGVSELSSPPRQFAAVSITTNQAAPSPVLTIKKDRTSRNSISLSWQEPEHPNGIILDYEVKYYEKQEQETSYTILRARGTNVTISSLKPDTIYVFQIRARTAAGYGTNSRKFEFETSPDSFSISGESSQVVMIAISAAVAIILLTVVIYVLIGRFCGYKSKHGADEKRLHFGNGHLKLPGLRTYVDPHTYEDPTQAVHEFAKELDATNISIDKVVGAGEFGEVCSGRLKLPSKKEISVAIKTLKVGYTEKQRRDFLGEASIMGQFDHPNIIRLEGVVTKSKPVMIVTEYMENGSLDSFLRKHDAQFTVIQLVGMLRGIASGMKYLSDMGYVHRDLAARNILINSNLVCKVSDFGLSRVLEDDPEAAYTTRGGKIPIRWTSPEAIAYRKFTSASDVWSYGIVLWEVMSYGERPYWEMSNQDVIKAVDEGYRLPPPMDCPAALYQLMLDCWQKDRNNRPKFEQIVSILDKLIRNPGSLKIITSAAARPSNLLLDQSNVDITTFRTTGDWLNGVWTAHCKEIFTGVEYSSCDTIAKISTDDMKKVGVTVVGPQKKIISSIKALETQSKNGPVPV

[11] = molecular target: Ephrin type-A receptor 5 (Homo sapiens) (UniProt P54756); details: Compound concentration 1000.0 nM
[12] = molecular target: Mitogen-activated protein kinase 7 (Homo sapiens) (UniProt Q13164); details: Compound concentration 1000.0 nM
[13] = molecular target: Fibroblast growth factor receptor 3 (Homo sapiens) (UniProt P22607); details: Compound concentration 1000.0 nM
[14] = molecular target: Receptor-type tyrosine-protein kinase FLT3 (Homo sapiens) (UniProt P36888); details: Compound concentration 1000.0 nM
[15] = tested on: Mast/stem cell growth factor receptor Kit (Homo sapiens), P10721 [D816V]; details: Compound concentration 1000.0 nM
[16] = tested on: Mast/stem cell growth factor receptor Kit (Homo sapiens), P10721 [V559D,V654A]; details: Compound concentration 1000.0 nM
[17] = molecular target: Mitogen-activated protein kinase kinase kinase 2 (Homo sapiens) (UniProt Q9Y2U5); details: Compound concentration 1000.0 nM
[18] = molecular target: Myosin light chain kinase 2, skeletal/cardiac muscle (Homo sapiens) (UniProt Q9H1R3); details: Compound concentration 1000.0 nM
[19] = molecular target: Serine/threonine-protein kinase Nek4 (Homo sapiens) (UniProt P51957); details: Compound concentration 1000.0 nM
Serine/threonine-protein kinase Nek4 (Homo sapiens), sequence (P51957 whole entry, looked up): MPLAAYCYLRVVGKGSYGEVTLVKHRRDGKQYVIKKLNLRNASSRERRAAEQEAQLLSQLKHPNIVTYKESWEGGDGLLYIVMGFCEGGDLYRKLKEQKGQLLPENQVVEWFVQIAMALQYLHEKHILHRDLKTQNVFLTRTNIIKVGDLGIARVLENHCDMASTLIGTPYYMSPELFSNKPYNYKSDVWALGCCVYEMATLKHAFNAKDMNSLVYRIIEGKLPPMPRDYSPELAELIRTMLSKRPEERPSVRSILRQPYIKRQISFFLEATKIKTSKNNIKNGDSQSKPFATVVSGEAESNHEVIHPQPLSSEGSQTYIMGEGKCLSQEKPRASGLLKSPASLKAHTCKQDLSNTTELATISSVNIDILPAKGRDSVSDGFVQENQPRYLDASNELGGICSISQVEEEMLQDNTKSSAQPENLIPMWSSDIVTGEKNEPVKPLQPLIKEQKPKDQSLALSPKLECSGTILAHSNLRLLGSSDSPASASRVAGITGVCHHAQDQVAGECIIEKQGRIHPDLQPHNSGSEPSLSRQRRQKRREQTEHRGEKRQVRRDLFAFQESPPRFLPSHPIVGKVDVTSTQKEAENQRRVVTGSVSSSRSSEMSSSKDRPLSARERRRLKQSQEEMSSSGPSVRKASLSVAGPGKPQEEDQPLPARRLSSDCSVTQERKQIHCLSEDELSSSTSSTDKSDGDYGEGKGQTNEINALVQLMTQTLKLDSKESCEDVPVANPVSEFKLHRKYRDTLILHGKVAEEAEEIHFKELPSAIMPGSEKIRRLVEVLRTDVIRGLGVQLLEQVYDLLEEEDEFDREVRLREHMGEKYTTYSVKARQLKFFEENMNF

[20] = molecular target: Serine/threonine-protein kinase PAK 2 (Homo sapiens) (UniProt Q13177); details: Compound concentration 1000.0 nM
[21] = molecular target: Phosphatidylinositol 4,5-bisphosphate 3-kinase catalytic subunit alpha isoform (Homo sapiens) (UniProt P42336); details: Compound concentration 1000.0 nM
[22] = tested on: Phosphatidylinositol 4,5-bisphosphate 3-kinase catalytic subunit alpha isoform (Homo sapiens), P42336 [M1043I]; details: Compound concentration 1000.0 nM
[23] = molecular target: Serine/threonine-protein kinase PknB (Mycobacterium tuberculosis) (UniProt P9WI81); details: Compound concentration 1000.0 nM
[24] = molecular target: Protein kinase C epsilon type (Homo sapiens) (UniProt Q02156); details: Compound concentration 1000.0 nM
[25] = molecular target: Protein kinase C eta type (Homo sapiens) (UniProt P24723); details: Compound concentration 1000.0 nM
[26] = molecular target: Protein kinase C iota type (Homo sapiens) (UniProt P41743); details: Compound concentration 1000.0 nM
[27] = tested on: Proto-oncogene tyrosine-protein kinase receptor Ret (Homo sapiens), P07949 [V804L]; details: Compound concentration 1000.0 nM
Proto-oncogene tyrosine-protein kinase receptor Ret (Homo sapiens), P07949 [V804L], sequence (P07949 whole entry V804L): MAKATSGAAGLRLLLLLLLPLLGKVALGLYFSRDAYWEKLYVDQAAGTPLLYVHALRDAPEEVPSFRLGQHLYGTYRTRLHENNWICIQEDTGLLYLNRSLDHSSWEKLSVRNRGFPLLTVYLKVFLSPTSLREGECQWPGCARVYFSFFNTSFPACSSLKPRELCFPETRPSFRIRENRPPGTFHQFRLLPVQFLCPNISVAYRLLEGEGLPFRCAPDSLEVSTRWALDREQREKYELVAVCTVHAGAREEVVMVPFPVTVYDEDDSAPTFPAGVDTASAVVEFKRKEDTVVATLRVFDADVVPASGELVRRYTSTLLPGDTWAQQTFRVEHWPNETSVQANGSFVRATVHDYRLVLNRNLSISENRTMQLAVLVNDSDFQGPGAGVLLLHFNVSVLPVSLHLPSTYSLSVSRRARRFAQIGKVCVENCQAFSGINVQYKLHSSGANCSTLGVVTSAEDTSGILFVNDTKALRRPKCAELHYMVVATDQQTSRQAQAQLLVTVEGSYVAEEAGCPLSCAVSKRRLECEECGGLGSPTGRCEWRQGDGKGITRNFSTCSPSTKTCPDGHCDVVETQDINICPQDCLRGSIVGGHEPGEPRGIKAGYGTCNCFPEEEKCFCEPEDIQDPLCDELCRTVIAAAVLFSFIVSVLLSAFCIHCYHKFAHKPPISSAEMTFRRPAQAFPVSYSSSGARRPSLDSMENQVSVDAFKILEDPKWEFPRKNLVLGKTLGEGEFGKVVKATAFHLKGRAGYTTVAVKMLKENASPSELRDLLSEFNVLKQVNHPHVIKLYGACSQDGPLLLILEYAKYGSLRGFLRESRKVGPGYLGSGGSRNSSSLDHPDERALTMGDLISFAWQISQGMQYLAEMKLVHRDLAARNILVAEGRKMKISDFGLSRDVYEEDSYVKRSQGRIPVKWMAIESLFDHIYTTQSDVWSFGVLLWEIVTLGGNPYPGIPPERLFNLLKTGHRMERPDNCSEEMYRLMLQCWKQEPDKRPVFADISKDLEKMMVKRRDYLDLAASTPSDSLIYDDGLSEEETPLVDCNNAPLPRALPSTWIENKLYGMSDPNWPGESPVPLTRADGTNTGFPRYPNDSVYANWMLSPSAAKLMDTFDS

[28] = molecular target: Ribosomal protein S6 kinase alpha-2 (Homo sapiens) (UniProt Q15349); details: Compound concentration 1000.0 nM
[29] = molecular target: Uncharacterized serine/threonine-protein kinase SBK3 (Homo sapiens) (UniProt P0C264); details: Compound concentration 1000.0 nM
[30] = molecular target: Serine/threonine-protein kinase SIK1 (Homo sapiens) (UniProt P57059); details: Compound concentration 1000.0 nM
[31] = molecular target: SNF-related serine/threonine-protein kinase (Homo sapiens) (UniProt Q9NRH2); details: Compound concentration 1000.0 nM
[32] = molecular target: Proto-oncogene tyrosine-protein kinase Src (Homo sapiens) (UniProt P12931); details: Compound concentration 1000.0 nM
[33] = molecular target: SRSF protein kinase 3 (Homo sapiens) (UniProt Q9UPE1); details: Compound concentration 1000.0 nM
[34] = molecular target: Serine/threonine-protein kinase ULK3 (Homo sapiens) (UniProt Q6PHR2); details: Compound concentration 1000.0 nM
[35] = molecular target: Serine/threonine-protein kinase WNK2 (Homo sapiens) (UniProt Q9Y3S1); details: Compound concentration 1000.0 nM
[36] = molecular target: D(1A) dopamine receptor (Homo sapiens) (UniProt P21728); details: Compound concentration 10.0 uM
[37] = molecular target: T1, D(4) dopamine receptor (Homo sapiens) (UniProt P21917); details: Compound concentration 10.0 uM
T1 sequence (whole entry): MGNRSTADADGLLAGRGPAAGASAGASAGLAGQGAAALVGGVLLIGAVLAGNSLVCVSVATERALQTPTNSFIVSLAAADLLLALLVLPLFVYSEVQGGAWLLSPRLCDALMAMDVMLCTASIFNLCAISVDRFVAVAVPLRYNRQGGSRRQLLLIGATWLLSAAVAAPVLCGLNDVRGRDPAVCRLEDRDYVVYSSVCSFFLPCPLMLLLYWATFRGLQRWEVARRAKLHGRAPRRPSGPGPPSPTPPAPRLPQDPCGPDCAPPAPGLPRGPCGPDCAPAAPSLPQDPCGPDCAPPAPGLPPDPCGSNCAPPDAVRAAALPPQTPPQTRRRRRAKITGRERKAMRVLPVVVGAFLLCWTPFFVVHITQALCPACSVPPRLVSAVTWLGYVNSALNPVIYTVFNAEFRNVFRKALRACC

[38] = molecular target: Sodium-dependent noradrenaline transporter (Homo sapiens) (UniProt P23975); details: Compound concentration 10.0 uM
[39] = molecular target: Delta-type opioid receptor (Homo sapiens) (UniProt P41143); details: Compound concentration 10.0 uM
Delta-type opioid receptor (Homo sapiens), sequence (P41143 whole entry): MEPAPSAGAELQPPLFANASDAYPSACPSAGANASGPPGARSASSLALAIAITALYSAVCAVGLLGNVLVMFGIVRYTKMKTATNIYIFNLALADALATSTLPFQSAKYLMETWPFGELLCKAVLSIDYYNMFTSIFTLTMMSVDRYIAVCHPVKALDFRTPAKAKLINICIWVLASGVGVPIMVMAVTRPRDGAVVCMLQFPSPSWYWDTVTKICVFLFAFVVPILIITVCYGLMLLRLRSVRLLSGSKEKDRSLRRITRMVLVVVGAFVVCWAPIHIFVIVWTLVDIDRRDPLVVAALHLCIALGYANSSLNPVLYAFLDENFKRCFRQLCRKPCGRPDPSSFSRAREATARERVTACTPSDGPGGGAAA

Row | SMILES | residual activity [1] [%] | residual activity [2] [%] | residual activity [3] [%] | residual activity [4] [%] | residual activity [5] [%] | residual activity [6] [%] | residual activity [7] [%] | residual activity [8] [%] | residual activity [9] [%] | residual activity [10] [%] | residual activity [11] [%] | residual activity [12] [%] | residual activity [13] [%] | residual activity [14] [%] | residual activity [15] [%] | residual activity [16] [%] | residual activity [17] [%] | residual activity [18] [%] | residual activity [19] [%] | residual activity [20] [%] | also measured
1 | NS(=O)(=O)c1cc(NC(=O)C2(c3ccccc3Cl)CC2)ccc1Oc1cccc(Cl)c1 [BAY-207] | 82 | 69 | 100 | 100 | 87 | 71 | 80 | 90 | 90 | 100 | 79 | 92 | 100 | 100 | 93 | 100 | 100 | 73 | 100 | 100 | residual activity [21]: 100%; residual activity [22]: 98%; residual activity [23]: 90%; residual activity [24]: 65%; residual activity [25]: 100%; residual activity [26]: 98%; residual activity [27]: 70%; residual activity [28]: 100%; residual activity [29]: 74%; residual activity [30]: 71%; residual activity [31]: 100%; residual activity [32]: 88%; residual activity [33]: 80%; residual activity [34]: 83%; residual activity [35]: 88%; inhibition [36]: 3.57%; inhibition [37]: 27%; inhibition [38]: 22.4%; inhibition [39]: 41.6%
2 | NS(=O)(=O)c1cc(NC(=O)Cc2ccccc2)ccc1Oc1cccc(Cl)c1 [BAY-1797] | 61 | 76 | 72 | 68 | 94 | 96 | 99 | 95 | 63 | 78 | 62 | 83 | 86 | 100 | 77 | 100 | 84 | 81 | 98 | 91 | residual activity [21]: 89%; residual activity [22]: 93%; residual activity [23]: 89%; residual activity [24]: 87%; residual activity [25]: 93%; residual activity [26]: 93%; residual activity [27]: 80%; residual activity [28]: 89%; residual activity [29]: 100%; residual activity [30]: 93%; residual activity [31]: 100%; residual activity [32]: 90%; residual activity [33]: 100%; residual activity [34]: 74%; residual activity [35]: 0%; inhibition [36]: 21.6%; inhibition [37]: 28.4%; inhibition [38]: 0.53%; inhibition [39]: 20.5%
